pIC50, pKi: −log10 of the molar value.
What was measured:
[1] = target: T1, Fatty-acid amide hydrolase 1 (Homo sapiens, UniProt O00519); experiment: Inhibition of FAAH; settings: for IC50: read-out: pIC50 (converted); for pIC50: read-out: IC50
T1 sequence (O00519 whole entry): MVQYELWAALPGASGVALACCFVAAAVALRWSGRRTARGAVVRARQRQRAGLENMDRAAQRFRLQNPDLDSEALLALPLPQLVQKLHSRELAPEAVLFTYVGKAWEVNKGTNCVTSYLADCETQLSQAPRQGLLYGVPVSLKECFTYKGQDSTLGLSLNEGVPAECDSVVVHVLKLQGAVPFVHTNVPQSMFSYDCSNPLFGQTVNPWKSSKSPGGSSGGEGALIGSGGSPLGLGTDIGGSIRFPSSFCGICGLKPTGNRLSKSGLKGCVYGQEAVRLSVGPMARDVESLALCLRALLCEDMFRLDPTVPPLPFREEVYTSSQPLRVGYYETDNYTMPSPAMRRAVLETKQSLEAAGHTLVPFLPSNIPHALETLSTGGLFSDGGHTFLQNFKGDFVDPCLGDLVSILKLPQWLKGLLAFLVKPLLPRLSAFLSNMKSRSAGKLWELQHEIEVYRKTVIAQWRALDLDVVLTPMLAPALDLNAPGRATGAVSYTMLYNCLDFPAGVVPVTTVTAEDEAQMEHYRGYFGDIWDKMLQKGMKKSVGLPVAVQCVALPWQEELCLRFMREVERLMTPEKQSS

[2] = target: T1, Fatty-acid amide hydrolase 1; experiment: Inhibition of human FAAH

Row | Structure (SMILES) | pKi [1] | other results
1 | CCCCCCCCCCCCCCCC(=O)NCC |  | IC50 [1]: 3.55 µM
2 | CCCCCCCCCCCCCC(=O)C(F)(F)F | 6.31 | 
3 | CCCCCCCC/C=C\CCCCCCCC(=O)C(N)=O | 7.77 | 
4 | O=C(CCCCCCc1ccccc1)c1nnc(-c2ccccn2)[nH]1 | < 5.00 | 
5 | O=C(CCCCCc1ccccc1)c1nc2ncccc2o1 | 9.70 | 
6 | CCCCCCCC/C=C\CCCCCCCNC(=O)Oc1cccc(-c2cccc(C(N)=O)c2)c1 |  | pIC50 [2]: 7.24
7 | O=C(CCCCCCCCc1ccccc1)c1nc2ncccc2o1 | 9.28 | 
8 | CCCCCCCC/C=C\CCCCCCC(=O)c1nc2ccc(C)cc2o1 | < 4.00 | 
9 | O=C(CCCCCCCc1ccccc1)c1nc2ncccc2o1 | 9.41 | 
10 | CCCCCCCCCC(=O)C(F)(F)F | 6.89 | 
11 | CCCCCCCC/C=C\CCCCCCC(=O)c1cccnn1 | 6.89 | 
12 | CCCCCCCC/C=C\CCCCCCC(=O)c1nc2cnccc2o1 | 8.14 | 
13 | CCCCCCCC/C=C\CCCCCCC(=O)c1nc2ccccc2o1 | 6.43 | 
14 | CCCCCCCC/C=C\CCCCCCC(=O)c1nccn1C | < 4.00 | 
15 | O=C(CCCCOCc1ccccc1)c1ncc(-c2ccccn2)o1 | 7.26 | 
16 | CCOC(=O)CCCc1ccc(-n2c(CC)nc(-c3ccccc3)c2-c2ccccc2)cc1 |  | pIC50 [1]: 7.19
17 | CCCCCCCC/C=C\CCCCCCC(=O)c1ncc(-c2ccco2)o1 | 7.27 | 
18 | O=C(CCCCc1ccccc1)c1nc2ncccc2o1 | 9.52 | 
19 | CCCCCCCC/C=C\CCCCCCC(=O)c1ncco1 | 7.77 | 
20 | O=C(NC1CCCCC1)Oc1cccc(-c2ccccc2)c1 |  | pIC50 [2]: 7.20
21 | O=C(CCCc1ccccc1)c1nc2ncccc2o1 | 8.16 | 
22 | CCCCCCCC/C=C\CCCCCCC(=O)c1nc2c(C)cccc2o1 | < 4.00 | 
23 | CCCCCCCC/C=C\CCCCCCCC(OC)OC | < 3.52 | 

Row | Structure (SMILES) | pKi [1] | other results
24 | CCCCCCCC/C=C\CCCCCCCC(=O)CCl | 6.15 | 
25 | CNC(=O)COC(=O)N1CCC(CCc2ccc(Cl)cc2)CC1 |  | pIC50 [1]: 7.89
26 | CCCCCCCCCCCCCCN1C(=O)C(c2ccccc2)(c2ccccc2)NC1=S |  | IC50 [1]: 1.15 µM
27 | CCCCCCCCCCCCCCCC(=O)NCCBr |  | IC50 [1]: 3.55 µM
28 | NC(=O)c1cccc(-c2cccc(OC(=O)NCCCCCCc3ccccc3)c2)c1 |  | pIC50 [2]: 7.85
29 | O=C(CCCCSCc1ccccc1)c1ncc(-c2ccccn2)o1 | 7.60 | 
30 | O=C(NC1CCCCC1)Oc1ccc2ccccc2c1 |  | pIC50 [2]: 6.49
31 | O=C(CCCCCCc1ccccc1)C(F)(F)F | 7.00 | 
32 | CCCCCCCC/C=C\CCCCCCC(=O)c1nc(-c2ccccn2)co1 | 7.51 | 
33 | O=C(CCCCCCc1ccccc1)c1nnn(-c2ccccn2)n1 | 8.96 | 
34 | CCCCCCCC/C=C\CCCCCCC(=O)c1ncc(-c2cccnc2)o1 | 7.21 | 
35 | CCCCC/C=C\C/C=C\C/C=C\C/C=C\CCCNC(=O)NCc1ccc(OC)c(O)c1 |  | pIC50 [1]: 5.70
36 | CCCCCCCC/C=C\CCCCCCC(=O)c1ncc(-c2ccccn2)o1 | 7.74 | 
37 | O=C(CCCCCCc1ccccc1)c1nnc[nH]1 | < 6.00 | 
38 | CCCCC/C=C\C/C=C\C/C=C\C/C=C\CCCC(=O)NCCCl |  | pIC50 [1]: 6.05
39 | CCCCC/C=C\C/C=C\C/C=C\C/C=C\CCCC(=O)Nc1cccnc1 |  | pIC50 [1]: 5.92
40 | CCCCCC(=O)C(F)(F)F | 4.54 | 
41 | CCCCCCCC/C=C\CCCCCCCC(=O)C(=O)OCC | 8.05 | 
42 | CCCCCCCC/C=C\CCCCCCC(=O)c1nnc(-c2ccccn2)o1 | 5.52 | 
43 | CCCCC/C=C\C/C=C\C/C=C\C/C=C\CCCC(=O)NCCO [ANANDAMIDE] |  | pIC50 [1]: 5.47
44 | CCCCC/C=C\C/C=C\C/C=C\C/C=C\CCCC(=O)NC12CC3CC(CC(C3)C1)C2 |  | pIC50 [1]: 4.43
45 | C=CCNC(=O)CCCCCCCCCCCCCCC [HEXADECANOIC ACID ALLYLAMIDE] |  | IC50 [1]: 3.39 µM
46 | CCCCC/C=C\C/C=C\C/C=C\C/C=C\CCCC(=O)O [ARACHIDONIC ACID] |  | pIC50 [1]: < 4.00

Row | Structure (SMILES) | pKi [1] | other results
47 | OB(O)c1ccc(Oc2ccccc2)cc1 |  | pIC50 [1]: > 8.00
48 | CCCCCCCC/C=C\CCCCCCC(=O)c1nc2ncccc2o1 | 8.64 | 
49 | CCCCCCCC/C=C\CCCCCCC(=O)c1nccs1 | < 4.00 | 
50 | CCCCCCCC/C=C\CCCCCCC(=O)c1ncc(-c2ccccc2)o1 | 6.49 | 
51 | CCCCCCC(C)OC(=O)CC(=O)CBr (configuration not stated) | 6.09 | 
52 | CC(C)c1cccc(CN2CCC(CCCC(=O)c3ncco3)CC2)c1 |  | pIC50 [1]: 8.44
53 | CCCCCCCC/C=C\CCCCCCC(=O)c1ccncn1 | 6.96 | 
54 | CCCCCCCC/C=C\CCCCCCCC=O [OLEALDEHYDE] | 6.72 | 
55 | O=C(NC1CCCC1)Oc1cccc(C(=O)c2nc3ccccc3s2)c1 |  | pIC50 [1]: 4.33
56 | CCCCCCCC/C=C\CCCCCCC(=O)c1ccccn1 | < 4.00 | 
57 | NC(=O)c1cccc(-c2cccc(OC(=O)NCc3ccc4ccccc4c3)c2)c1 |  | pIC50 [1]: 9.20
58 | CCCCCCCC/C=C\CCCCCCCC(=O)C(F)(F)F | 7.92 | 
59 | O=C(NC1CCCC1)Oc1cccc(C(=O)c2nc3ccccc3o2)c1 |  | pIC50 [1]: 4.55
60 | O=C(Nc1cccc(C(=O)c2nc3ccccc3o2)c1)NC1CCCC1 |  | pIC50 [1]: < 3.52
61 | CCCCCCCC/C=C\CCCCCCC(=O)c1nc2cccnc2o1 | 7.96 | 
62 | O=C(CCCCCCc1ccccc1)c1nc2ncccc2o1 | 9.55 | 
63 | CCCCCCCC/C=C\CCCCCCC(=O)c1ccccc1 | < 4.00 | 
64 | CCCCCCCC/C=C\CCCCCCC(=O)c1nnn(C)n1 | 7.19 | 
65 | CCCCCCCC/C=C\CCCCCCCC(=O)O [OLEIC ACID] | 5.22 | 
66 | CCCCCCCC/C=C\CCCCCCC(=O)c1ncc(-c2ccsc2)o1 | 4.88 | 
67 | CN(CCCCC(=O)c1ncc(-c2ccccn2)o1)Cc1ccccc1 | 6.70 | 
68 | CCCCCCCCCCCCCCCC(=O)NCCCl |  | IC50 [1]: 2.63 µM
69 | CCCCCCCC/C=C\CCCCCCC(=O)c1nc2ccncc2o1 | 8.43 | 

Row | Structure (SMILES) | pKi [1] | other results
70 | CCCCCCCC/C=C\CCCCCCC(=O)c1ncc(-c2ccncc2)o1 | 7.25 | 
71 | CCCCCCC(=O)C(F)(F)F | 4.97 | 
72 | CCCCC/C=C\C/C=C\C/C=C\C/C=C\CCCC(=O)NCC1CC1 |  | pIC50 [1]: 5.85
73 | O=C(CCCCS(=O)(=O)Cc1ccccc1)c1ncc(-c2ccccn2)o1 | < 5.00 | 
74 | CNC(=O)Oc1cccc2ccccc12 [CARBARIL] |  | pIC50 [2]: < 4.52
75 | CCCCCCCC/C=C\CCCCCCC(=O)c1nc2cccc(C)c2o1 | 4.89 | 
76 | O=C(NCC1CCCCC1)Oc1ccc(C(=O)O)cc1 |  | pIC50 [2]: > 7.00
77 | CCCCCCCCCCCCCCCC(=O)NCCCCl |  | IC50 [1]: 2.51 µM
78 | CCCCCCCC/C=C\CCCCCCCC(C)=O | < 4.00 | 
79 | O=C(CCc1ccc(COc2ccccc2)cc1)c1ncc(-c2ccccn2)o1 | 9.00 | 
80 | O=C(CCCCCCc1ccccc1)c1nnn[nH]1 | < 6.00 | 
81 | CCCCCCCC/C=C\CCCCCCCC(O)C(N)=O (configuration not stated) | < 4.00 | 
82 | O=C(CCCCCCc1cccc(Cl)c1)c1ncc(-c2ccccn2)o1 | 9.05 | 
83 | CCCCCCCCCCCC(=O)C(F)(F)F | 6.85 | 
84 | CCCCCCCCCCCCCCCC(=O)NCCCO [N-(3-HYDROXYPROPYL)PALMITAMIDE] |  | IC50 [1]: 3.8 µM
85 | CCCCCCCC/C=C\CCCCCCC(=O)c1nc(-c2ccccc2)c(-c2ccccc2)o1 | < 4.00 | 
86 | CCCCCCCC/C=C\CCCCCCC(=O)c1ncc(-c2ccoc2)o1 | 6.21 | 
87 | CCCCCCCC/C=C\CCCCCCC(=O)c1nc2cc(C)ccc2o1 | < 4.00 | 
88 | CCCCCCCC(=O)C(F)(F)F | 5.92 | 
89 | CCCCCCCCCCCCCCCCCC(=O)C(F)(F)F | 6.62 | 
90 | N#Cc1cnc(C(=O)CCc2ccc(-c3ccccc3)cc2)o1 | 9.70 | 
91 | O=C(O)c1cccc(CCCCCCC(=O)c2ncc(-c3ccccn3)o2)c1 | < 6.22 | 
92 | O=C(CCCC[S+]([O-])Cc1ccccc1)c1ncc(-c2ccccn2)o1 (configuration not stated) | 5.60 | 

— ChEMBL document CHEMBL1140205, “Discovery and development of fatty acid amide hydrolase (FAAH) inhibitors” (J Med Chem, 2008)
